In ChEMBL document CHEMBL1671626, “In vitro profiling of ceftaroline against a collection of recent bacterial clinical isolates from across the United States” (2008):
In brackets after ≈: the same amount, converted by molar mass.

What was measured:
Type in all cases: functional
Proteus mirabilis [1] = experiment: Antibacterial activity against ceftazidime-susceptible Proteus mirabilis assessed as resistant isolates by CLSI M7-A7 broth microdilution method
Citrobacter freundii [2] = experiment: Antibacterial activity against ceftazidime-nonsusceptible Citrobacter freundii by CLSI M7-A7 broth microdilution method
Proteus mirabilis [3] = experiment: Antibacterial activity against ceftazidime-susceptible Proteus mirabilis by CLSI M7-A7 broth microdilution method
Citrobacter freundii [4] = experiment: Antibacterial activity against ceftazidime-nonsusceptible Citrobacter freundii assessed as resistant isolates by CLSI M7-A7 broth microdilution method
Escherichia coli [5] = experiment: Antibacterial activity against ceftazidime-susceptible Escherichia coli assessed as susceptible isolates by CLSI M7-A7 broth microdilution method
Citrobacter freundii [6] = experiment: Antibacterial activity against ceftazidime-susceptible Citrobacter freundii by CLSI M7-A7 broth microdilution method
Haemophilus influenzae [7] = experiment: Antibacterial activity against beta lactamase-negative Haemophilus influenzae assessed as resistant isolates by CLSI M7-A7 broth microdilution method
Morganella morganii [8] = experiment: Antibacterial activity against ceftazidime-susceptible Morganella morganii assessed as susceptible isolates by CLSI M7-A7 broth microdilution method
Acinetobacter [9] = experiment: Antibacterial activity against multidrug-resistant Acinetobacter by CLSI M7-A7 broth microdilution method
Proteus mirabilis [10] = experiment: Antibacterial activity against ceftazidime-susceptible Proteus mirabilis assessed as susceptible isolates by CLSI M7-A7 broth microdilution method
Enterobacter cloacae [11] = experiment: Antibacterial activity against ceftazidime-nonsusceptible Enterobacter cloacae assessed as resistant isolates by CLSI M7-A7 broth microdilution method
Klebsiella pneumoniae [12] = experiment: Antibacterial activity against ceftazidime-susceptible Klebsiella pneumoniae by CLSI M7-A7 broth microdilution method
Klebsiella pneumoniae [13] = experiment: Antibacterial activity against ceftazidime-nonsusceptible Klebsiella pneumoniae assessed as susceptible isolates by CLSI M7-A7 broth microdilution method
Enterobacter cloacae [14] = experiment: Antibacterial activity against ceftazidime-susceptible Enterobacter cloacae assessed as susceptible isolates by CLSI M7-A7 broth microdilution method
Providencia sp. [15] = experiment: Antibacterial activity against ceftazidime-susceptible Providencia sp. assessed as susceptible isolates by CLSI M7-A7 broth microdilution method
Serratia marcescens [16] = experiment: Antibacterial activity against ceftazidime-susceptible Serratia marcescens assessed as resistant isolates by CLSI M7-A7 broth microdilution method
Klebsiella pneumoniae [17] = experiment: Antibacterial activity against ceftazidime-susceptible Klebsiella pneumoniae assessed as susceptible isolates by CLSI M7-A7 broth microdilution method
Morganella morganii [18] = experiment: Antibacterial activity against ceftazidime-susceptible Morganella morganii by CLSI M7-A7 broth microdilution method
Enterobacter cloacae [19] = experiment: Antibacterial activity against ceftazidime-susceptible Enterobacter cloacae assessed as resistant isolates by CLSI M7-A7 broth microdilution method
Enterobacteriaceae [20] = experiment: Antibacterial activity against ceftazidime-nonsusceptible Enterobacteriaceae by CLSI M7-A7 broth microdilution method
Escherichia coli [21] = experiment: Antibacterial activity against ceftazidime-susceptible Escherichia coli assessed as resistant isolates by CLSI M7-A7 broth microdilution method
Enterobacteriaceae [22] = experiment: Antibacterial activity against ceftazidime-susceptible Enterobacteriaceae assessed as susceptible isolates by CLSI M7-A7 broth microdilution method
Klebsiella pneumoniae [23] = experiment: Antibacterial activity against ceftazidime-nonsusceptible Klebsiella pneumoniae by CLSI M7-A7 broth microdilution method
Serratia marcescens [24] = experiment: Antibacterial activity against ceftazidime-susceptible Serratia marcescens by CLSI M7-A7 broth microdilution method
Escherichia coli [25] = experiment: Antibacterial activity against ceftazidime-susceptible Escherichia coli by CLSI M7-A7 broth microdilution method
Klebsiella pneumoniae [26] = experiment: Antibacterial activity against ceftazidime-susceptible Klebsiella pneumoniae assessed as resistant isolates by CLSI M7-A7 broth microdilution method
Haemophilus influenzae [27] = experiment: Antibacterial activity against beta lactamase-positive Haemophilus influenzae by CLSI M7-A7 broth microdilution method
Haemophilus influenzae [28] = experiment: Antibacterial activity against beta lactamase-positive Haemophilus influenzae assessed as resistant isolates by CLSI M7-A7 broth microdilution method
Providencia sp. [29] = experiment: Antibacterial activity against ceftazidime-susceptible Providencia sp. assessed as resistant isolates by CLSI M7-A7 broth microdilution method
Enterobacteriaceae [30] = experiment: Antibacterial activity against ceftazidime-nonsusceptible Enterobacteriaceae assessed as resistant isolates by CLSI M7-A7 broth microdilution method
Haemophilus influenzae [31] = experiment: Antibacterial activity against beta lactamase-positive Haemophilus influenzae assessed as susceptible isolates by CLSI M7-A7 broth microdilution method
Morganella morganii [32] = experiment: Antibacterial activity against ceftazidime-susceptible Morganella morganii assessed as resistant isolates by CLSI M7-A7 broth microdilution method
Enterobacter cloacae [33] = experiment: Antibacterial activity against ceftazidime-susceptible Enterobacter cloacae by CLSI M7-A7 broth microdilution method
Serratia marcescens [34] = experiment: Antibacterial activity against ceftazidime-susceptible Serratia marcescens assessed as susceptible isolates by CLSI M7-A7 broth microdilution method
Escherichia coli [35] = experiment: Antibacterial activity against ceftazidime-nonsusceptible Escherichia coli assessed as resistant isolates by CLSI M7-A7 broth microdilution method
Enterobacteriaceae [36] = experiment: Antibacterial activity against ceftazidime-susceptible Enterobacteriaceae by CLSI M7-A7 broth microdilution method
Citrobacter freundii [37] = experiment: Antibacterial activity against ceftazidime-susceptible Citrobacter freundii assessed as resistant isolates by CLSI M7-A7 broth microdilution method
Acinetobacter [38] = experiment: Antibacterial activity against imipenem-susceptible Acinetobacter by CLSI M7-A7 broth microdilution method
Klebsiella pneumoniae [39] = experiment: Antibacterial activity against ceftazidime-nonsusceptible Klebsiella pneumoniae assessed as resistant isolates by CLSI M7-A7 broth microdilution method
Escherichia coli [40] = experiment: Antibacterial activity against ceftazidime-nonsusceptible Escherichia coli assessed as susceptible isolates by CLSI M7-A7 broth microdilution method
Enterobacteriaceae [41] = experiment: Antibacterial activity against ceftazidime-susceptible Enterobacteriaceae assessed as resistant isolates by CLSI M7-A7 broth microdilution method
Citrobacter freundii [42] = experiment: Antibacterial activity against ceftazidime-nonsusceptible Citrobacter freundii assessed as susceptible isolates by CLSI M7-A7 broth microdilution method
Escherichia coli [43] = experiment: Antibacterial activity against ceftazidime-nonsusceptible Escherichia coli by CLSI M7-A7 broth microdilution method
Providencia sp. [44] = experiment: Antibacterial activity against ceftazidime-susceptible Providencia sp. by CLSI M7-A7 broth microdilution method
Haemophilus influenzae [45] = experiment: Antibacterial activity against beta lactamase-negative Haemophilus influenzae assessed as susceptible isolates by CLSI M7-A7 broth microdilution method
Enterobacter cloacae [46] = experiment: Antibacterial activity against ceftazidime-nonsusceptible Enterobacter cloacae by CLSI M7-A7 broth microdilution method
Enterobacteriaceae [47] = experiment: Antibacterial activity against ceftazidime-nonsusceptible Enterobacteriaceae assessed as susceptible isolates by CLSI M7-A7 broth microdilution method
Haemophilus influenzae [48] = experiment: Antibacterial activity against beta lactamase-negative Haemophilus influenzae by CLSI M7-A7 broth microdilution method
Enterobacter cloacae [49] = experiment: Antibacterial activity against ceftazidime-nonsusceptible Enterobacter cloacae assessed as susceptible isolates by CLSI M7-A7 broth microdilution method
Citrobacter freundii [50] = experiment: Antibacterial activity against ceftazidime-susceptible Citrobacter freundii assessed as susceptible isolates by CLSI M7-A7 broth microdilution method

CC1(C)S[C@@H]2[C@H](NC(=O)[C@H](N)c3ccccc3)C(=O)N2[C@H]1C(=O)O [AMPICILLIN]
Activity (Proteus mirabilis [1]): 27.6% | MIC (Citrobacter freundii [2]): > 32 µg/mL | MIC50 (Citrobacter freundii [2]): > 32 µg/mL | MIC90 (Citrobacter freundii [2]): > 32 µg/mL | MIC50 (Proteus mirabilis [3]): 1 µg/mL (≈ 2.86 µM) | MIC90 (Proteus mirabilis [3]): > 32 µg/mL | Activity (Citrobacter freundii [4]): 100% | Activity (Escherichia coli [5]): 58.3% | MIC50 (Citrobacter freundii [6]): 16 µg/mL (≈ 45.8 µM) | MIC90 (Citrobacter freundii [6]): > 32 µg/mL | Activity (Haemophilus influenzae [7]): 1% | Activity (Morganella morganii [8]): 8.8% | MIC (Acinetobacter [9]): > 32 µg/mL | MIC50 (Acinetobacter [9]): > 32 µg/mL | Activity (Proteus mirabilis [10]): 72.4% | Activity (Enterobacter cloacae [11]): 100% | MIC50 (Klebsiella pneumoniae [12]): > 32 µg/mL | MIC90 (Klebsiella pneumoniae [12]): > 32 µg/mL | Activity (Klebsiella pneumoniae [13]): 0% | Activity (Enterobacter cloacae [14]): 20% | Activity (Providencia sp. [15]): 22.2% | Activity (Serratia marcescens [16]): 83.1% | Activity (Klebsiella pneumoniae [17]): 5.2% | MIC50 (Morganella morganii [18]): > 32 µg/mL | MIC90 (Morganella morganii [18]): > 32 µg/mL | Activity (Enterobacter cloacae [19]): 66% | MIC (Enterobacteriaceae [20]): > 32 µg/mL | MIC50 (Enterobacteriaceae [20]): > 32 µg/mL | MIC90 (Enterobacteriaceae [20]): > 32 µg/mL | Activity (Escherichia coli [21]): 40.9% | Activity (Enterobacteriaceae [22]): 35.2% | MIC (Klebsiella pneumoniae [23]): > 32 µg/mL | MIC50 (Klebsiella pneumoniae [23]): > 32 µg/mL | MIC90 (Klebsiella pneumoniae [23]): > 32 µg/mL | MIC50 (Serratia marcescens [24]): > 32 µg/mL | MIC90 (Serratia marcescens [24]): > 32 µg/mL | MIC50 (Escherichia coli [25]): 4 µg/mL (≈ 11.4 µM) | MIC90 (Escherichia coli [25]): > 32 µg/mL | Activity (Klebsiella pneumoniae [26]): 80% | MIC50 (Haemophilus influenzae [27]): 32 µg/mL (≈ 91.6 µM) | MIC90 (Haemophilus influenzae [27]): > 32 µg/mL | Activity (Haemophilus influenzae [28]): 97% | Activity (Providencia sp. [29]): 66.7% | Activity (Enterobacteriaceae [30]): 100% | Activity (Haemophilus influenzae [31]): 2% | Activity (Morganella morganii [32]): 85.3% | MIC50 (Enterobacter cloacae [33]): 32 µg/mL (≈ 91.6 µM) | MIC90 (Enterobacter cloacae [33]): > 32 µg/mL | Activity (Serratia marcescens [34]): 3.4% | Activity (Escherichia coli [35]): 100% | MIC50 (Enterobacteriaceae [36]): 32 µg/mL (≈ 91.6 µM) | MIC90 (Enterobacteriaceae [36]): > 32 µg/mL | Activity (Citrobacter freundii [37]): 42% | MIC50 (Acinetobacter [38]): 16 µg/mL (≈ 45.8 µM) | MIC90 (Acinetobacter [38]): > 32 µg/mL | Activity (Klebsiella pneumoniae [39]): 100% | Activity (Escherichia coli [40]): 0% | Activity (Enterobacteriaceae [41]): 57% | Activity (Citrobacter freundii [42]): 0% | MIC (Escherichia coli [43]): > 32 µg/mL | MIC50 (Escherichia coli [43]): > 32 µg/mL | MIC90 (Escherichia coli [43]): > 32 µg/mL | MIC50 (Providencia sp. [44]): 32 µg/mL (≈ 91.6 µM) | MIC90 (Providencia sp. [44]): > 32 µg/mL | Activity (Haemophilus influenzae [45]): 99% | MIC (Enterobacter cloacae [46]): > 32 µg/mL | MIC50 (Enterobacter cloacae [46]): > 32 µg/mL | MIC90 (Enterobacter cloacae [46]): > 16 µg/mL | Activity (Enterobacteriaceae [47]): 0% | MIC (Haemophilus influenzae [48]): ≤ 0.25 µg/mL | MIC50 (Haemophilus influenzae [48]): ≤ 0.25 µg/mL | MIC90 (Haemophilus influenzae [48]): 0.5 µg/mL (≈ 1.43 µM) | Activity (Enterobacter cloacae [49]): 0% | Activity (Citrobacter freundii [50]): 36%
